Laboratory results reported in ChEMBL document CHEMBL5154845, “Dual-acting antitumor agents targeting the A2A adenosine receptor and histone deacetylases: Design and synthesis of 4-(furan-2-yl)-1H-pyrazolo[3,4-d]pyrimidin-6-amine derivatives” (Eur J Med Chem, 2022).
Active and inactive are the calls of the source. No cut-off for these calls is given here.

Experiments:
Adenosine receptor A2a = Adenosine receptor A2a (Homo sapiens, UniProt P29274); assay: Displacement of [3H][…] from human A2AAR incubated for 60 mins by scintillation counter analysis
Sequence of Adenosine receptor A2a (P29274 whole entry): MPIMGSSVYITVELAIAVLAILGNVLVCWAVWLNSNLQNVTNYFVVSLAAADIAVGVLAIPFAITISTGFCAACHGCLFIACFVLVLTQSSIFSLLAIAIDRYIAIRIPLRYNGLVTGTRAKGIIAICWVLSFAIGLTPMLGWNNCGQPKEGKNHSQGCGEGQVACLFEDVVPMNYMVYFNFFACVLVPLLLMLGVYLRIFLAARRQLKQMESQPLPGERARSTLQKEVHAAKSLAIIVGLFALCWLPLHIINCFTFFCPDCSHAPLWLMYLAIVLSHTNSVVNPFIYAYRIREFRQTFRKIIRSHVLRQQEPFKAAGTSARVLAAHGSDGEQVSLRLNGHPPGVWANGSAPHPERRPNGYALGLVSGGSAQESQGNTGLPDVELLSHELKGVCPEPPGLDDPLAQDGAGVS

Histone deacetylase 1 = Histone deacetylase 1 (Homo sapiens, UniProt Q13547); assay: Inhibition of HDAC1 (unknown origin) using trypsin and LGK(Ac)-AMC as substrates incubated for 1 hr and measured by fluorescence assay
Sequence of Histone deacetylase 1 (Q13547 whole entry): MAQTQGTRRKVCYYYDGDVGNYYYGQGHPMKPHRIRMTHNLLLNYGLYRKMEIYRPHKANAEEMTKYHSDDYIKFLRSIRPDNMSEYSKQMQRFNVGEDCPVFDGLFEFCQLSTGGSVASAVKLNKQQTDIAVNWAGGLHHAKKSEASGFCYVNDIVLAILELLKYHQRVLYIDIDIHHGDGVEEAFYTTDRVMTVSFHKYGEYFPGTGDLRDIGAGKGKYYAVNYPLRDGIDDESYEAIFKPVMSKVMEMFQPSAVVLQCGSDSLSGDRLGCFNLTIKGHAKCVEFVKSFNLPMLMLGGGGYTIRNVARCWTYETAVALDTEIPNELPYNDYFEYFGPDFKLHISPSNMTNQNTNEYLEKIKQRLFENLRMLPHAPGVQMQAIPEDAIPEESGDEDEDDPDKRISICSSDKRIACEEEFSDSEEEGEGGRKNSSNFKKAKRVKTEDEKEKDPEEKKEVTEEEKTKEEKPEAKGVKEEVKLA

MC-38 = assay: Antiproliferative activity against mouse MC38 cells after 72 hrs by CCK-8 assay; assay type: functional
CT26 = assay: Antiproliferative activity against mouse CT26 cells after 72 hrs by CCK-8 assay; assay type: functional
MC38 [1] = assay: Inhibition of HDAC in mouse MC38 cells assessed as increase in H3 acetylation at 0.1 to 10 uM measured by western blot analysis; assay type: cell-based; settings: dose 0.1-10 µM
MC38 [2] = assay: Inhibition of HDAC in mouse MC38 cells assessed as increase in H4 acetylation at 0.1 to 10 uM measured by western blot analysis; assay type: cell-based; settings: dose 0.1-10 µM
Adenosine receptor A1 = biological target: T1, Adenosine receptor A1 (Homo sapiens, UniProt P30542); assay: Displacement of [3H]DPCPX from human A1AR incubated for 60 mins by scintillation counter analysis
T1 sequence (P30542 whole entry): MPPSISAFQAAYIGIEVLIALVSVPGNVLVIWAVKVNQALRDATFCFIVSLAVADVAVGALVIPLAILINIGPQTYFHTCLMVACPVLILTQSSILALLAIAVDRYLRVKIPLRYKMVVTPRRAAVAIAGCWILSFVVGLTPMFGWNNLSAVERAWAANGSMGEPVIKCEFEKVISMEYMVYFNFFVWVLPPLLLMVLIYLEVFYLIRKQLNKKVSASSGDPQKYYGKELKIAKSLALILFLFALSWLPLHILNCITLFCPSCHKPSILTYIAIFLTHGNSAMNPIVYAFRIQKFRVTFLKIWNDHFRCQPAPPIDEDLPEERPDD

Adenosine receptor A2b = biological target: T2, Adenosine receptor A2b (Homo sapiens, UniProt P29275); assay: Displacement of [3H]DPCPX from human A2BAR incubated for 60 mins by scintillation counter analysis
T2 sequence (P29275 whole entry): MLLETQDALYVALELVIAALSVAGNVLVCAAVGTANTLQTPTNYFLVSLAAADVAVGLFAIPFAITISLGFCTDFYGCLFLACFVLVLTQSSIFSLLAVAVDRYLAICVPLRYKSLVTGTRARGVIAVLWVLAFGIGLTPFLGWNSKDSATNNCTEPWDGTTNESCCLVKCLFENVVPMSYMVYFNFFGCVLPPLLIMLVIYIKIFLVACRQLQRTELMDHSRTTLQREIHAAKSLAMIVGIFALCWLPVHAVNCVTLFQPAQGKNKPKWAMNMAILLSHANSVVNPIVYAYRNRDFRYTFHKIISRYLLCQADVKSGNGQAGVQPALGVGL

Adenosine receptor A3 = biological target: T3, Adenosine receptor A3 (Homo sapiens, UniProt P0DMS8); assay: Displacement of [3H]HEMADO from human A3AR incubated for 60 mins by scintillation counter analysis
T3 sequence (P0DMS8 whole entry): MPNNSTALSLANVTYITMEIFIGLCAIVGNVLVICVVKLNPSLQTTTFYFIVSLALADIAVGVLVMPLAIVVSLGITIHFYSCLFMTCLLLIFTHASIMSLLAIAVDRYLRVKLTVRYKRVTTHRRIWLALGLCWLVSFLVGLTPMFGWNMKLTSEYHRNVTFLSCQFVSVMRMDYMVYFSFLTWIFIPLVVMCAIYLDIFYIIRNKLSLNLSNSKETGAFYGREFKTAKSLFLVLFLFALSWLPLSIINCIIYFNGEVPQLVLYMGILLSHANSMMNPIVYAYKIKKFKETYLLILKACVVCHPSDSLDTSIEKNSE

Histone deacetylase 2 = Histone deacetylase 2 (Homo sapiens, UniProt Q92769); assay: Inhibition of HDAC2 (unknown origin) using trypsin and LGK(Ac)-AMC as substrates incubated for 1 hr and measured by fluorescence assay
Sequence of Histone deacetylase 2 (Q92769 whole entry): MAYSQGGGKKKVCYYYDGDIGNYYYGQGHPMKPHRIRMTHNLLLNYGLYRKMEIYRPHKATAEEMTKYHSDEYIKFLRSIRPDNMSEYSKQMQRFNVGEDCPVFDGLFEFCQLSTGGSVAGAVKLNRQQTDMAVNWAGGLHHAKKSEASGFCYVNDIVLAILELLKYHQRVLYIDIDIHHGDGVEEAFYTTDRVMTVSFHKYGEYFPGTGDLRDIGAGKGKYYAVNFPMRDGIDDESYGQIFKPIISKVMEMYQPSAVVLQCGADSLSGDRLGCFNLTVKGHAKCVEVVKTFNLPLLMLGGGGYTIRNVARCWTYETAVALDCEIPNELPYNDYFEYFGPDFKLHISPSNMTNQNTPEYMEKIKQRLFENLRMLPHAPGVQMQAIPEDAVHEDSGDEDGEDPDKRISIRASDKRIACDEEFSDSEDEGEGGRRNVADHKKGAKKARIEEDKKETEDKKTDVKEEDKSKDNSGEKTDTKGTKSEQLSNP

Histone deacetylase 3 = Histone deacetylase 3 (Homo sapiens, UniProt O15379); assay: Inhibition of HDAC3 (unknown origin) using trypsin and LGK(Ac)-AMC as substrates incubated for 1 hr and measured by fluorescence assay
Sequence of Histone deacetylase 3 (O15379 whole entry): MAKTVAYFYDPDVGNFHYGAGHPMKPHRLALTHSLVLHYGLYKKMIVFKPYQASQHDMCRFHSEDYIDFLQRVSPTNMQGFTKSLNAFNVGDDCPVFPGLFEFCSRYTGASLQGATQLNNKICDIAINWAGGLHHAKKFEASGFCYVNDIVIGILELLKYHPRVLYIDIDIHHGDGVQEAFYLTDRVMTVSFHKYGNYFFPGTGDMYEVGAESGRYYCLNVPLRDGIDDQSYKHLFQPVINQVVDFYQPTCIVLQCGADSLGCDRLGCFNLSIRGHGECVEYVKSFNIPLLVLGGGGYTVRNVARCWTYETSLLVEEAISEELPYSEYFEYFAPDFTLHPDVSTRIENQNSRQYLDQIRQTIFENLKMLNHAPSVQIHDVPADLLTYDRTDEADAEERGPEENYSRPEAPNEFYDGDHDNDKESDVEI

[3] = biological target: T4, Protein deacetylase HDAC6 (Homo sapiens, UniProt Q9UBN7); assay: Inhibition of HDAC6 (unknown origin) using trypsin and LGK(Ac)-AMC as substrates incubated for 1 hr and measured by fluorescence assay
T4 sequence (Q9UBN7 whole entry): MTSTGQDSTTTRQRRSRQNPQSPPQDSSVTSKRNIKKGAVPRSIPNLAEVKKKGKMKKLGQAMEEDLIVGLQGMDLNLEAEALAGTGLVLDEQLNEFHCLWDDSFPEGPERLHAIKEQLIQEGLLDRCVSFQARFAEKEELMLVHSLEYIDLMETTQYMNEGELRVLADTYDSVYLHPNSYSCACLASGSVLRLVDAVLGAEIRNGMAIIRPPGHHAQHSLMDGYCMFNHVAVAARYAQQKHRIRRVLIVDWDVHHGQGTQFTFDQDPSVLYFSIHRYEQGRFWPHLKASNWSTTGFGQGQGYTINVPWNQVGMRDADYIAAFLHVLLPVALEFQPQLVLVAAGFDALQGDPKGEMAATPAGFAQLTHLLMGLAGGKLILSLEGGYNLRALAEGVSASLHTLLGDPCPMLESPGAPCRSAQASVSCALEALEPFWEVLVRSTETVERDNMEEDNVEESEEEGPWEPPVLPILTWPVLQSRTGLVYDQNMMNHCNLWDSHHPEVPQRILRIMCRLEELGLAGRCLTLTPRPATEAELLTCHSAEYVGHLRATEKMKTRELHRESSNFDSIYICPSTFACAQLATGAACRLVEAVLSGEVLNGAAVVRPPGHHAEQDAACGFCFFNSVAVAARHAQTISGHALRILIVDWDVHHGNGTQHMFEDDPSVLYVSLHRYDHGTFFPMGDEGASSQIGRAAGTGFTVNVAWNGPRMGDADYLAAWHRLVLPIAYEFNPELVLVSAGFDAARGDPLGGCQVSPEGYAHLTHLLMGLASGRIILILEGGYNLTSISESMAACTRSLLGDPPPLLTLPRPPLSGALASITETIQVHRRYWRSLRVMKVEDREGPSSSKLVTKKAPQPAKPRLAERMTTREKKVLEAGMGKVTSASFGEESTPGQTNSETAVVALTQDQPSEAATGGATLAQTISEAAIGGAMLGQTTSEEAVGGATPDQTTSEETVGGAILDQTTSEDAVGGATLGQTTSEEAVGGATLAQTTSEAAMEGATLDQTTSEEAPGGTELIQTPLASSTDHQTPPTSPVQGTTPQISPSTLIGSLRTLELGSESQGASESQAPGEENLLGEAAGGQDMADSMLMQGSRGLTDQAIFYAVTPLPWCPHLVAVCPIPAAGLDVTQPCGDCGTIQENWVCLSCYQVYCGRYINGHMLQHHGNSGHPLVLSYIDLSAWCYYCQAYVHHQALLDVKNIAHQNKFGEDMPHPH

Histone deacetylase 8 = biological target: T5, Histone deacetylase 8 (Homo sapiens, UniProt Q9BY41); assay: Inhibition of HDAC8 (unknown origin) using trypsin and LGK(Ac)-AMC as substrates incubated for 1 hr and measured by fluorescence assay
T5 sequence (Q9BY41 whole entry): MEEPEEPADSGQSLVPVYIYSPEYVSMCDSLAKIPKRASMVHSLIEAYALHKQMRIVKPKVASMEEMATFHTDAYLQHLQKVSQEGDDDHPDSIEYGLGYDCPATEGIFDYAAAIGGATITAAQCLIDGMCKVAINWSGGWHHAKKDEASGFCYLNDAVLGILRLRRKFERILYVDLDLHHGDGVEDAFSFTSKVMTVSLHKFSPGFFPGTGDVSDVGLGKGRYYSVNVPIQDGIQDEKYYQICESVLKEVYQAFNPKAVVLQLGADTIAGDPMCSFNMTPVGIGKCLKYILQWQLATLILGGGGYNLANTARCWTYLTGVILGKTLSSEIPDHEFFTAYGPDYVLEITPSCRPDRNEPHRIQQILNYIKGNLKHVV

Nc1nc(-c2ccco2)c2cnn(Cc3cccc(OCCCCCCC(=O)NO)c3)c2n1 showed a Ki (Adenosine receptor A2a) of 10.3 nM, an IC50 (Histone deacetylase 1) of 18.5 nM and a GI50 (MC-38) of 12200 nM. For the same molecule, the GI50 (CT26) was 12600 nM, the inhibition (MC38 [1]) was “Active” and the inhibition (MC38 [2]) was “Active”. For the same molecule, the Ki (Adenosine receptor A1) was 106 nM, the Ki (Adenosine receptor A2b) was 513 nM and the Ki (Adenosine receptor A3) was over 10000 nM. The IC50 (Histone deacetylase 2) was 16 nM, the IC50 (Histone deacetylase 3) was 13.6 nM and the IC50 [3] was 2.1 nM. It also gave an IC50 (Histone deacetylase 8) of 1410 nM.
